This note sets out measurements from ChEMBL document CHEMBL1201862, “PubChem BioAssay data set” (2004).

Test in all cases: NCI-60 cell line screen, 48 h
For assay [1], the system named is UACC-62.
Assay [2] deals with U-251.
Assay [3] deals with Hs-578T.
Assay [4] deals with MDA-N.
In assay [5] the test system is SW-620.
The subject of assay [6] is EKVX.
Assay [7] concerns Malme-3M.
Assay [8] deals with HCT-15.
The test system of assay [9] is SF-268.
Assay [10] has as its system MOLT-4.
Assay [11] concerns SK-MEL-2.
Assay [12] has as its system RPMI-8226.
The subject of assay [13] is ACHN.
For assay [14], the system named is UO-31.
In assay [15] the test system is SF-539.
In assay [16] the test system is NCI-H23.
The subject of assay [17] is MCF7.
For assay [18], the system named is PC-3.
Assay [19] deals with UACC-257.
For assay [20], the system named is T47D.

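Compound exposure: 48 hours, 5 concentrations, 96-well plates. Abbreviation: GI50, concentration required for 50% inhibition of growth.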 Calls of active or inactive are those of the source. Cut-off read from the data, not from the text of the source: active = GI50 up to about 1.1 µM and inactive = higher.

Take `CCN(CC)c1ccc(/C=C/C=C2C(=O)NC(=S)NC2=O)cc1`: the GI50 in assay [1] was 15.1 µM (inactive); in [2], 21 µM (inactive); in assay [3], 11 µM (inactive); in assay [4], 12.4 µM (inactive); in assay [5] it was > 33.9 µM (inactive); in [6], > 62.4 µM (inactive). In addition, the GI50 in [7] was 16.6 µM (inactive); in assay [8] it was greater than 38.7 µM; in [9], 22.5 µM (inactive); in assay [10], 4.27 µM (inactive); in assay [11] it was > 68.9 µM (inactive); in assay [12], > 100 µM (inactive). The GI50 is > 100 µM (inactive) in assay [13]; > 71.8 µM (inactive) in assay [14]; 13.9 µM (inactive) in assay [15]; > 67.5 µM (inactive) in assay [16]; 27 µM (inactive) in [17]; > 69.3 µM (inactive) in [18]. For the same molecule, the GI50 in assay [19] is 58.6 µM (inactive); in [20] it was > 100 µM (inactive).
For the molecule `CC(=O)n1nc(-c2ccccc2)n(/N=C/c2ccc([N+](=O)[O-])o2)c1=O`, the GI50 in assay [1] was 10.4 µM (inactive); in assay [2], 15.9 µM (inactive); in [3], 8.59 µM (inactive); in assay [4] it was 1.81 µM (inactive); in assay [5], 5.87 µM (inactive); in [6], 0.933 µM (active). Further, the GI50 in assay [7] was 6.67 µM (inactive); in assay [8], 6.84 µM; in [9], 3.08 µM (inactive); in assay [10], 3.24 µM (inactive); in assay [11] it was 6.97 µM (inactive); in assay [12] it was 10 µM (inactive). Further, the GI50 in assay [13] was 8.38 µM (inactive); in assay [14], 1.77 µM (inactive); in [15], 8.79 µM (inactive); in assay [16], 7.64 µM (inactive); in assay [17], 2.58 µM (inactive); in [18] it was 13.7 µM (inactive). For the same molecule, the GI50 in assay [19] was 7.23 µM (inactive); in assay [20], 19.9 µM (inactive).
With `CC(CN1NC12CCCC2)N1NC12CCCC2` (stereo not drawn), the GI50 in [1], in assay [2], in assay [3], in assay [4], in [5] and in [6] was > 100 µM (inactive) each time. Further, the GI50 in assay [7] was > 100 µM (inactive); in [8] it was greater than 100 µM; in [9] it was > 100 µM (inactive); in assay [10], > 100 µM (inactive); in assay [11], > 100 µM (inactive); in assay [12], > 100 µM (inactive). Moreover, the GI50 in assay [13], in assay [14], in assay [15], in [16], in assay [17] and in assay [18] was > 100 µM (inactive) throughout. The GI50 was 60.8 µM (inactive) in [19] and > 100 µM (inactive) in assay [20].
Take `CC1=CCC[C@@H]2[C@@](C)(Cc3cc(O)ccc3O)[C@H](C)CC[C@@]12C`: the GI50 in [1] was 10.5 µM (inactive); in [2] it was 3.89 µM (inactive); in [3] it was 5.92 µM (inactive); in [4] it was 5.53 µM (inactive); in assay [5], 6.52 µM (inactive); in assay [6] it was 6.5 µM (inactive). In addition, the GI50 in [7] was 16.4 µM (inactive); in assay [8], 5 µM; in assay [9], 7.43 µM (inactive); in assay [10], 3.48 µM (inactive); in assay [11] it was 14.5 µM (inactive); in assay [12], 3.44 µM (inactive). Moreover, the GI50 in assay [13] was 6.25 µM (inactive); in assay [14] it was 5.33 µM (inactive); in assay [15], 6.18 µM (inactive); in [16], 5.87 µM (inactive); in assay [17] it was 4.97 µM (inactive); in assay [18], 4.33 µM (inactive). The results for the GI50 in [19] and in assay [20] were 11.5 µM (inactive) and 5.38 µM (inactive), respectively.
Turning to `CCC(=O)NCCc1c[nH]c2ccc(OC)cc12`, the GI50 in assay [1], in assay [2], in [3], in [4], in [5] and in assay [6] was > 100 µM (inactive) in each case. For the same molecule, the GI50 in assay [7] is > 100 µM (inactive); in assay [8], greater than 100 µM; in assay [9] it was > 100 µM (inactive); in [10] it was > 100 µM (inactive); in [11] it was > 100 µM (inactive); in assay [12], > 100 µM (inactive). The GI50 in assay [13], in assay [14], in [15], in assay [16], in [17] and in assay [18] was > 100 µM (inactive) throughout. Also, the GI50 in assay [19] and in assay [20] was > 100 µM (inactive) each time.
As for `COc1ccc(C)cc1NC(=S)N/N=C/c1ccco1`, the GI50 in [1] is 46.8 µM (inactive); in assay [3], 66.7 µM (inactive); in assay [4], 18.6 µM (inactive); in assay [5], 36.5 µM (inactive); in [6] it was 16.7 µM (inactive); in assay [7], 52.2 µM (inactive). For the same molecule, the GI50 in [8] is 34.2 µM; in [9] it was 56.1 µM (inactive); in [10] it was 31.7 µM (inactive); in assay [11] it was 16.6 µM (inactive); in assay [12] it was 21.4 µM (inactive); in assay [13], > 100 µM (inactive). Besides, the GI50 is 79.3 µM (inactive) in assay [14]; 27.6 µM (inactive) in assay [15]; 53.2 µM (inactive) in assay [16]; 4.94 µM (inactive) in assay [17]; 43.4 µM (inactive) in [18]; 30.9 µM (inactive) in assay [19]. For the same molecule, in assay [20], the GI50 was 25.4 µM (inactive).
On to `COC(=O)c1c(OC(C)=O)ccc2c1c1c(n2Cc2ccccc2)C(=O)c2ccccc2C1=O`, for which the GI50 is 22.5 µM (inactive) in assay [1]; 19.4 µM (inactive) in [2]; 19.9 µM (inactive) in [3]; 18.7 µM (inactive) in assay [4]; 19.6 µM (inactive) in [6]; 30 µM (inactive) in assay [7]. Moreover, the GI50 in assay [8] was 19.7 µM; in assay [9] it was 26.5 µM (inactive); in [10], 16.8 µM (inactive); in assay [11], 18.7 µM (inactive); in [12], 15.7 µM (inactive); in assay [13] it was 30.1 µM (inactive). Moreover, the GI50 in assay [14] is 37.2 µM (inactive); in [15], 17.9 µM (inactive); in assay [16] it was 19.5 µM (inactive); in assay [17], 33.9 µM (inactive); in assay [18], 22.4 µM (inactive); in assay [19], 10.7 µM (inactive). Besides, in assay [20], the GI50 is 20 µM (inactive).
